Laboratory results reported in patent US20080031986A1 (Metaproteomics, LLC, priority 2005, published 2008).

Legend:
3T3-L1 adipocytes = assay: Lipogenesis (Oil Red O / BODIPY) in 3T3-L1 adipocytes; type: cell-based, murine; conditions: for adipogenic response versus positive controls indomethacin and troglitazone: Day 0 to D6/7
Protocol: Prior to experiments, cells were cultured in DMEM containing 10% FBS-HI added 50 units penicillin/ml and 50 μg streptomycin/ml, and maintained in log phase prior to experimental setup. Cells were grown in a 5% CO2 humidified incubator at 37° C. Components of the pre-confluent medium included (1) 10% FBS/DMEM containing 4.5 g glucose/L; (2) 50 U/ml penicillin; and (3) 50 μg/ml streptomycin. Growth medium was made by adding 50 ml of heat inactivated FBS and 5 ml of penicillin/streptomycin to 500 ml DMEM. This medium was stored at 4° C. Before use, the medium was warmed to 37° C. in a water bath.
3T3-T1 cells were seeded at an initial density of 6×10^4 cells/cm^2 in 24-well plates. For two days, the cells were allowed grow to reach confluence. Following confluence, the cells were forced to differentiate into adipocytes by the addition of differentiation medium; this medium consisted of (1) 10% FBS/DMEM (high glucose); (2) 0.5 mM methylisobutylxanthine; (3) 0.5 μM dexamethasone and (4) 10 μg/ml insulin (MDI medium). After three days, the medium was changed to post-differentiation medium consisting of 10 μg/ml insulin in 10% FBS/DMEM.
Whenever fresh media were added, fresh test material was also added.
Monolayer cells were washed with PBS (phosphate buffered saline, Mediatech) and fixed with 10% formaldehyde for ten minutes. Fixed cells were stained with an Oil Red O working solution of three parts 0.6% Oil Red O/isopropanol stock solution and two parts water for one hour and the excess stain was washed once with water. The resulting stained oil droplets were extracted from the cells with isopropanol and quantified by spectrophotometric analysis at 540 nm (MEL312e BIO-KINETICS READER, Bio-Tek Instruments, Winooski, Vt.).
Briefly, media were removed and cells were washed once with non-sterile PBS. A stock 1000× BODIPY/DMSO solution was made by dissolving 1 mg BODIPY in 1 ml DMSO (1,000 μg BODIPY/ml). A working BODIPY solution was then made by adding 10 μl of the stock solution to 990 μl PBS for a final BODIPY concentration in the working solution of 0.01 μg/μl. One-hundred μl of this working solution (1 μg BODIPY) was added to each well of a 96-well microtiter plate. After 15 min on an orbital shaker (DS-500, VWR Scientific Products, South Plainfield, N.J.) at ambient temperature, the cells were washed with 100 μl PBS followed by the addition of 100 μl PBS for reading for spectrofluorometric determination of BODIPY incorporation into the cells. […]
Test materials were added in dimethyl sulfoxide at Day 0 of differentiation and every two days throughout the maturation phase (Day 6/7). […] Differentiated 3T3-L1 cells were stained with 0.2% Oil Red O. The resulting stained oil droplets were dissolved with isopropanol and quantified by spectrophotometric analysis at 530 nm.

[1] = tested on: insulin-resistant 3T3-L1 adipocytes; assay: Adiponectin secretion from insulin-resistant 3T3-L1 adipocytes; type: cell-based, murine; conditions: slope of Hofstee plot
Protocol: 3T3-L1 cells were seeded at an initial density of 1×10^4 cells/cm^2 in 96-well plates. For two days, the cells were allowed grow to reach confluence. Following confluence, the cells were forced to differentiate into adipocytes by the addition of differentiation medium; this medium consisted of (1) 10% FBS/DMEM (high glucose); (2) 0.5 mM methylisobutylxanthine; (3) 0.5 μM dexamethasone and (4) 10 μg/ml insulin (MDI medium). From Day 3 through Day 5, the medium was changed to post-differentiation medium consisting of 10 μg/ml insulin in 10% FBS/DMEM.
Briefly, on Day 6, cells were maintained in serum-free media containing 0.5% bovine serum albumin (BSA) for three hours and then treated with 1 μg insulin/ml plus solvent or insulin plus test material. […] Twenty-four hours later, the supernatant medium was sampled for adiponectin determination.
Statistical Calculations and Interpretation—All assays were preformed in duplicate. […] Differences between the doses were determined using the student's t-test without correction for multiple comparisons; the nominal five percent probability of a type I error was selected.
Substituting {relative adiponectin secretion/[concentration]} for the independent variable v/[S] and {relative adiponectin secretion} for the dependant variable {v}, produced a relationship of the form y=mx+b. […]

COX-2 = conditions: Warner et al. 1999; cited from earlier work
[2] = tested on: TNFα-treated 3T3-L1 adipocytes; assay: Adiponectin secretion from TNFα-treated 3T3-L1 adipocytes; type: cell-based, murine; conditions: for maximum increase of adiponectin secretion over TNFα solvent control: 10 ng TNFα/ml
Protocol: 3T3-L1 cells were seeded at an initial density of 1×10^4 cells/cm^2 in 96-well plates. For two days, the cells were allowed grow to reach confluence. Following confluence, the cells were forced to differentiate into adipocytes by the addition of differentiation medium; this medium consisted of (1) 10% FBS/DMEM (high glucose); (2) 0.5 mM methylisobutylxanthine; (3) 0.5 μM dexamethasone and (4) 10 μg/ml insulin (MDI medium). From Day 3 through Day 5, the medium was changed to post-differentiation medium consisting of 10% FBS in DMEM. […] On Day 6, the supernatant medium was sampled for adiponectin determination.
Statistical Calculations and Interpretation—All assays were preformed in duplicate. […] Differences among the doses and test agents were determined using the Student's t-test without correction for multiple comparisons; the nominal five percent probability of a type I error was selected.

db/db mice = assay: Non-fasting serum glucose and insulin in db/db diabetic mice; type: in vivo, mouse; conditions: three daily doses by gavage
Protocol: The Model—Male, C57BLKS/J m^+/m^+Lepr^db (db/db) mice were used to assess the potential of the test materials to reduce fasting serum glucose or insulin concentrations.
Testing Procedure—Test substances were administered daily by gavage in 0.2% Tween-80. Serum was collected from the retroorbital sinus before the initial dose and ninety minutes after the third and final dose. Non-fasting serum glucose was determined enzymatically by the mutarotase/glucose oxidase method and serum insulin was determined by a mouse specific ELISA.

DBA/J mice = assay: Collagen induced rheumatoid arthritis murine model; type: in vivo, mouse; conditions: 10 mg/kg, days 30-42

CC(C)CCC1=C(O)C(C(=O)C(C)C)=C(O)C(CCC(C)C)(CCC(C)C)C1=O [Hexahydro colupulone, hexahydrocolupulone]
adipogenic response versus positive controls indomethacin and troglitazone (3T3-L1 adipocytes): failed to elicit a lipogenic response greater than the solvent controls
Test Material at Half Maximal Secretion [1]: 3.2 µg/mL

Beta acids
adipogenic response versus positive controls indomethacin and troglitazone (3T3-L1 adipocytes): comparable to indomethacin and troglitazone

CC(=O)Oc1ccccc1C(=O)O [Aspirin, aspirin]
published values for direct COX-2 inhibition (COX-2): 1.4 to 50 µg/mL

CN(C)C(=N)N=C(N)N [metformin, reference compound]
lipogenic response / lipogenic index relative to solvent control (3T3-L1 adipocytes; Oil Red O, Acacia samples 50 μg/ml): 0.79

Cc1c(C)c2c(c(C)c1O)CCC(C)(COc1ccc(CC3SC(=O)NC3=O)cc1)O2 (centres unmarked) [Troglitazone, troglitazone]
maximum increase of adiponectin secretion over TNFα solvent control [2]: 51%

COc1cc(O)c(CC=C(C)C)c(O)c1C(=O)/C=C/c1ccc(O)cc1 [Xanthohumol, xanthohumol]
adipogenic response versus positive controls indomethacin and troglitazone (3T3-L1 adipocytes): comparable to indomethacin and troglitazone
serum glucose or insulin (db/db mice): reduction in serum glucose with no effect on insulin

CCc1ccc(CCOc2ccc(CC3SC(=O)NC3=O)cc2)nc1 (centres unmarked) [Pioglitazone, pioglitazone]
maximum increase of adiponectin secretion over TNFα solvent control [2]: 80%
Adiponectin Index, Observed ([2]; 1.0 μg/ml, indexed to TNFα control (Table 26)): 1.80

C[C@]12C=CC(=O)C=C1CC[C@@H]1[C@@H]2[C@@H](O)C[C@@]2(C)[C@H]1CC[C@]2(O)C(=O)CO [prednisolone]
arthritic index (DBA/J mice): Significant reductions
